For data set [1], the system named is Plasmodium falciparum. As to the kind of experiment: Antiplasmodial activity against chloroquine, pyrimethamine and mefloquine-resistant asexual blood stage of Plasmodium falciparum Dd2 assessed as reduction in parasite growth after 72 hrs by SYBR green I staining based fluorescence assay. The format is functional, organism-based. The note with it: Dd2, 72 h.

Data set [2] can be described thus: Half life in rat plasma at 40 mg/kg, po. The format is ADME, organism-based.
Data set [3] concerns Plasmodium falciparum. As to the kind of experiment: Antiplasmodial activity against chloroquine, pyrimethamine and mefloquine-sensitive asexual blood stage of Plasmodium falciparum 3D7 assessed as reduction in parasite growth after 72 hrs by SYBR green I staining based fluorescence assay. The format is functional, organism-based. The note with it: 3D7, 72 h.
Data set [4] can be described thus: Cytotoxicity against human HEK293 cells assessed as reduction in cell viability incubated for 24 hrs by resazurin dye based fluorescence assay. On the technique in general: Resazurin is reduced to fluorescent resorufin, in cell work by metabolically active cells.
Data set [5] in a line: Cytotoxicity against human primary hepatocytes assessed as reduction in cell viability incubated for 24 hrs by DAPI staining based fluorescence assay. Also noted: species or system Hepatocyte.
Data set [6] concerns Escherichia coli. In words: Antibacterial activity against Escherichia coli BL21 (DE3) cells assessed as inhibition of bacterial growth measured after 18 hrs measured by cell density meter. The format is functional.
Data set [7] can be described thus: Plasma protein binding in CD-1 mouse at 1 to 10 uM by LC-MS analysis. The format is ADME, cell-free. The note with it: dose 1-10 µM, read-out: PPB.
Data set [8] is described as follows: Stability in CD-1 mouse plasma measured after 60 mins LC-MS analysis. The format is ADME, cell-free. The note with it: read-out: Stability.
Data set [9] in a line: Solubility of the compound in pH 7.4 PBS buffer by LC-MS analysis. The format is physicochemical.
The nature of data set [10]: Stability in CD-1 mouse liver microsomes assessed as half life measured after 60 mins in presence of NADPH LC-MS analysis. The format is ADME, Microsome.
The nature of data set [11]: Stability in mouse hepatocyte assessed as half life measured after 120 mins by LC-MS analysis. The settings on record: hepatocytes. The format is ADME, tissue-based.
A short description of data set [12]: Partition coefficient, logD between 1-octanol and pH 7.4 PBS by LC-MS analysis. The note with it: 1-octanol/PBS. The format is physicochemical.
The nature of data set [13]: Oral bioavailability in rat. The format is ADME, organism-based. The settings on record: in vivo.
Data set [14] can be described thus: AUC(0 to 24) in rat at 40 mg/kg, po. The format is ADME, organism-based. Also noted: time < 24 hr, route oral, dose 40 mg/kg. The settings on record: in vivo.
Data set [15] concerns Plasmodium berghei. As to the kind of experiment: In vivo antimalarial activity against blood stage transgenic Plasmodium berghei ANKA strain (PbGFP-Luccon) infected in swiss Webster mouse assessed as supression of parasitemia at 40 mg/kg, po administered once daily starting from day 2 to 6 post infection and measured at day 7 by luciferase substrate based imaging analysis. The format is functional, organism-based. The settings on record: time 5.0 day.

The values below come from ChEMBL document CHEMBL5036373, “Enantiopure Benzofuran-2-carboxamides of 1-Aryltetrahydro-β-carbolines Are Potent Antimalarials In Vitro” (ACS Med Chem Lett, 2022).

In general, EC50 refers to the concentration at which the effect is half-maximal. A word on the half-life: it is the time needed for the level to fall by half in the phase considered. Usually CC50 stands for the concentration giving 50% cytotoxicity. What is called MIC is the lowest concentration that inhibits growth of the organism. The term solubility denotes how much of the substance goes into solution per volume. By logD is commonly meant the decadic logarithm of the distribution of all forms, ionised or not, between an organic phase and buffer at a given pH. Low values mean lower lipophilicity, high ones higher lipophilicity. By bioavailability is commonly meant the share of a dose that reaches the circulation, judged against a reference dose that is usually intravenous. By AUC is commonly meant concentration integrated over time. A low value points to less exposure.

Active and inactive are the calls of the source. A value given as a limit tells only on which side of the number the result lay.

In the case of `O=C(c1cc2cc(Cl)ccc2o1)N1CCc2c([nH]c3ccccc23)[C@H]1c1ccc(Br)cc1`, in [1], the EC50 amounted to 194 nM.
Take `O=C(c1cc2cc(Br)ccc2o1)N1CCc2c([nH]c3ccccc23)[C@H]1c1ccc(Cl)cc1`: the half-life was 8 h in data set [2], 1.32 h in data set [10] and 2.92 h in data set [11]. The EC50 in data set [1] was found to be 155 nM; in data set [3], 180 nM. In addition, the CC50 at 24 h in data set [4] is above 50000 nM; in [5], above 10000 nM. For the same molecule, the MIC in [6] is above 25 µM. Further, the fraction unbound at up to 10 µM in data set [7] was below 0.001. Besides, the remaining at 1 h in data set [8] was 100%. The molecule also displayed a solubility in data set [9] below 0.044 µM. In data set [12], this molecule returned a logD above 5. Moreover, the bioavailability in [13] turned out to be 11%. Besides, in [14], the AUC at 24 h came to 28200 ng·h/mL. Further, the outcome in [15] was inactive.
`CCOc1ccc([C@@H]2c3[nH]c4ccccc4c3CCN2C(=O)c2cc3ccccc3o2)cc1`: in data set [1], the EC50 stood at 1250 nM.
On to `CCOc1ccc([C@@H]2c3[nH]c4ccccc4c3CCN2C(=O)c2cc3cc(Cl)ccc3o2)cc1`, for which the EC50 in [1] was determined as 129 nM; in data set [3], 175 nM.
Regarding `CCOc1ccc([C@@H]2c3[nH]c4ccccc4c3CCN2C(=O)c2cc3cc(Cl)ccc3[nH]2)cc1`, the EC50 in data set [1] worked out at 1250 nM.
Still for that read-out and setting: the same measure for `O=C(CCC1CCCC1)N1CCc2c([nH]c3ccccc23)C1c1ccc(Cl)cc1` (racemic): 726 nM.
Take `C[C@@H]1CC[C@H]2[C@@H](C)C(=O)O[C@@H]3O[C@@]4(C)CC[C@@H]1[C@]32OO4` [ARTEMISININ]: the EC50 in data set [1] was determined as 11 nM; in [3] it was 10 nM.
For `O=C(c1cc2cc(Cl)ccc2o1)N1CCc2c([nH]c3ccccc23)[C@H]1c1ccc(F)cc1`, in [1], the EC50 is 143 nM.
Regarding `O=C(c1cc2cc(Br)ccc2o1)N1CCc2c([nH]c3ccccc23)[C@H]1c1ccccc1`, in data set [1], the EC50 was found to be 452 nM.
For the molecule `O=C(c1ccccc1)N1CCc2c([nH]c3ccccc23)C1c1ccc(Cl)cc1` (racemic), the concentration for a half-maximal effect (EC50) in data set [1] is 2500 nM.
Turning to `CC(=O)N1CCc2c([nH]c3ccccc23)C1c1ccc(Cl)cc1` (racemic), the EC50 in data set [1] came to 2500 nM.
As to `CCOc1ccc([C@@H]2c3[nH]c4ccccc4c3CCN2C(=O)c2cc3cc(F)ccc3o2)cc1`, the EC50 in data set [1] was 123 nM.
For the molecule `N#Cc1ccc([C@@H]2c3[nH]c4ccccc4c3CCN2C(=O)c2cc3cc(Br)ccc3o2)cc1`, the EC50 in [1] was 216 nM.
`CCOc1ccc([C@@H]2c3[nH]c4ccccc4c3CCN2C(=O)c2cc3cc(Br)ccc3o2)cc1`: the EC50 in data set [1] is 138 nM; in [3], 120 nM.
With `O=C(c1ccc(Cl)c(Cl)c1)N1CCc2c([nH]c3ccccc23)C1c1ccc(Cl)cc1` (racemic), in data set [1], the EC50 came out at 1240 nM.
Consider `CCOc1ccc([C@H]2c3[nH]c4ccccc4c3CCN2C(=O)c2cc3cc(Br)ccc3o2)cc1`, for which the EC50 in [1] is 625 nM.
Still for that read-out and setting: the same measure for `COc1ccc(C(=O)N2CCc3c([nH]c4ccccc34)C2c2ccc(Cl)cc2)cc1` (racemic): 1250 nM; for `O=C(c1cc2cc(Br)ccc2o1)N1CCc2c([nH]c3ccccc23)C1c1ccc(Cl)cc1` (racemic): 185 nM.
The same measure, in the same setting: the same measure for `O=C(c1cc2cc(Cl)ccc2[nH]1)N1CCc2c([nH]c3ccccc23)[C@H]1c1ccc(Cl)cc1`: 1250 nM.
On the same count and under the same terms, the same measure for `O=C(c1cc2cc(Br)ccc2o1)N1CCc2c([nH]c3ccccc23)[C@H]1c1ccc(F)cc1`: 211 nM; for `CCOc1ccc([C@@H]2c3[nH]c4ccccc4c3CCN2C(=O)c2nc3cc(Br)ccc3[nH]2)cc1`: 625 nM.
For `Clc1ccc(C2NCCc3c2[nH]c2ccccc32)cc1` (racemic), in data set [1], the EC50 worked out at 5000 nM.
Still for that read-out and setting: the same measure for `O=C(c1cc2ccccc2o1)N1CCc2c([nH]c3ccccc23)[C@H]1c1ccc(Cl)cc1`: 1250 nM; for `O=C(c1cc2ccc(Br)cc2o1)N1CCc2c([nH]c3ccccc23)[C@H]1c1ccc(Cl)cc1`: 796 nM.
As to `O=C(c1cc2cc(Cl)ccc2o1)N1CCc2c([nH]c3ccccc23)[C@H]1c1ccc(Cl)cc1`, the EC50 in data set [1] stood at 173 nM; in [3], 304 nM.
As to `CCOc1ccc([C@@H]2c3[nH]c4ccccc4c3CCN2C(=O)c2nc3cc(Br)ccc3o2)cc1`, the EC50 in data set [1] is 770 nM; in data set [3] it was 937 nM.
As to `Cc1ccc2oc(C(=O)N3CCc4c([nH]c5ccccc45)[C@H]3c3ccc(Cl)cc3)cc2c1`, the EC50 in [1] was found to be 198 nM.
With `CCN(CC)CCCC(C)Nc1ccnc2cc(Cl)ccc12` (stereo not drawn) [CHLOROQUINE], the EC50 in data set [1] was 319 nM; in data set [3], 7 nM. Moreover, the result in data set [15] was Active.
Turning to `O=C(c1cc2cc(Br)ccc2o1)N1CCc2c([nH]c3ccccc23)[C@H]1c1ccc(Br)cc1`, the EC50 in data set [1] worked out at 239 nM.
As for `O=C(c1cc2cc(Br)ccc2o1)N1CCc2c([nH]c3ccccc23)[C@@H]1c1ccc(Cl)cc1`, the figures for the EC50 in data set [1] and in data set [3] were 28 nM and 15 nM, respectively.
For `O=C(c1ccc(Br)cc1)N1CCc2c([nH]c3ccccc23)C1c1ccc(Cl)cc1` (racemic), the EC50 in data set [1] was determined as 682 nM.
